# Data taken from article PMC11530130, “Peripherally restricted PICK1 inhibitor mPD5 ameliorates pain behaviors in murine inflammatory and neuropathic pain models” (JCI Insight, 2024).
# Several values for one entry are separate records, joined by “and”; a condition that tells them apart may be missing. Identical values can stand only once.
# Key:
# [1] = system: mice, spared nerve injury (SNI) model; experiment: SNI model, von Frey, single s.c. dose, female mice; assay type: in vivo, mouse; conditions: s.c. 2, 10, 50 μmol/kg (all tested doses), 1 hour after injection
# Protocol: solution (0.05 mg/kg) injected s.c. 30 min before surgery (10 μL/g). For surgery, mice were anaesthetised with ketamine (100 mg/kg, i.p.) and xylazine (10 mg/kg, i.p.) (volume 10 µL/g) with 100 μL of 1% xylocaine solution infiltrated at the site of the incision. The distal trifurcation of the sciatic nerve was identified, and the tibial and common peroneal branches were ligated with polypropylene nonabsorbable 6-0 sutures (Ethicon) and 1 mm was cut out, leaving the sural branch intact. The wound was closed with sutures, and the animals were allowed to recover and returned to their cages. […]
# Wounds were closed with surgical glue or medical clips and animals were monitored daily for signs of stress or discomfort, but in all cases recovered uneventfully. […]
# Unless otherwise specified, von Frey occurred as described in the following. […] Mechanical paw withdrawal threshold (PWT) was determined by von Frey measurements of both hind paws. […]
# Mice were placed in PVC plastic boxes (11.5 cm x 14 cm) on a wire mesh and allowed minimum 20 min habituation prior of experiment initiation. Each von Frey hair was applied five times with adequate resting periods between each application and number of withdrawals recorded. The withdrawal threshold was determined as the von Frey filament eliciting at least three positive trials out of the five applications in two consecutive filaments. […]
# [2] = system: mice, spared nerve injury (SNI) model; experiment: SNI model, von Frey, repeated s.c. administration on 2 consecutive days; assay type: in vivo, mouse; parameters: von Frey threshold, Fig 7A, individual mice: unit not given here
# Description: Repeated and sustained administration of mPD5 in the SNI model.
# For the experiment with repeated administration of mPD5 (Figure 7A), male C57BL/6J (Janvier, France) mice underwent surgery leading to partial nerve injury, by cutting the peroneal and tibial nerves, producing hypersensitivity of the remaining sural nerve (SNI) as described in the “Induction of neuropathic pain (SNI model).”-section. On day 21 after surgery, hyperalgesia was confirmed by using von Frey filaments to induce mechanically evoked hypersensitivity and measure paw withdrawal threshold of the animals as described in the “Mechanically-evoked pain (von Frey).”-section. On the same day, mice were injected s.c. with 2, 10, or 50 μmol/kg mPD5 (10 μL/g) and evoked pain was tested again with the use of von Frey filaments at 1 and 5 hours after injection. 24 hours after the first injection, mice were injected s.c. with 2, 10, or 50 μmol/kg mPD5 (10 μL/g) again and evoked pain was tested with the use of von Frey filaments at 1, 5, and 24 hours after the second injection. […]
smiles,measurement,setting,value
"CCCCCCCCCCCCCC(=O)N(CCOCCOCCC(=O)N[C@@H](Cc1c[nH]cn1)C(=O)N[C@@H](Cc1c[nH]c2ccccc12)C(=O)N[C@@H](CC(C)C)C(=O)N[C@@H](CCCCN)C(=O)N[C@H](C(=O)O)C(C)C)CCOCCOCCC(=O)N[C@@H](Cc1c[nH]cn1)C(=O)N[C@@H](Cc1c[nH]c2ccccc12)C(=O)N[C@@H](CC(C)C)C(=O)N[C@@H](CCCCN)C(=O)N[C@H](C(=O)O)C(C)C [mPD5, myristoyl-NPEG4-(HWLKV)2]",effect on mechanical hypersensitivity (PWT),[1],significantly reduced mechanical hypersensitivity
same,"von Frey threshold, contralateral paw, Fig 7A, individual mice","[2]; A_contra, hr 5 day2",1.4 and 1 (3×)
same,"von Frey threshold, contralateral paw, Fig 7A, individual mice","[2]; A_contra, hr23",1 (3×) and 1.4 (4×) and 2
same,"von Frey threshold, contralateral paw, Fig 7A, individual mice","[2]; A_contra, hr1 day 1",1.4 (6×) and 1 and 2
same,"von Frey threshold, contralateral paw, Fig 7A, individual mice","[2]; A_contra, hr 1 day 2",1 (5×) and 1.4 (2×) and 2
same,"von Frey threshold, contralateral paw, Fig 7A, individual mice","[2]; A_contra, hr 5 day 1",1.4 (6×) and 2 and 1
same,"von Frey threshold, contralateral paw, Fig 7A, individual mice","[2]; B_contra, hr23",1.4 (4×) and 1 (3×) and 2
same,"von Frey threshold, contralateral paw, Fig 7A, individual mice","[2]; B_contra, hr1 day 1",1.4 (5×) and 1 (3×)
same,"von Frey threshold, contralateral paw, Fig 7A, individual mice","[2]; B_contra, hr 1 day 2",1.4 (5×) and 1 (3×)
same,"von Frey threshold, contralateral paw, Fig 7A, individual mice","[2]; B_contra, hr 5 day 1",1.4 and 1 (2×) and 2 (5×)
same,"von Frey threshold, contralateral paw, Fig 7A, individual mice","[2]; C_comtra, hr23",2 and 1.4 (5×) and 1 (2×)
same,"von Frey threshold, contralateral paw, Fig 7A, individual mice","[2]; C_comtra, hr1 day 1",3 and 2 (2×) and 1 (2×) and 1.4 (3×)
same,"von Frey threshold, contralateral paw, Fig 7A, individual mice","[2]; C_comtra, hr 1 day 2",1 (2×) and 1.4 (4×) and 2 (2×)
same,"von Frey threshold, contralateral paw, Fig 7A, individual mice","[2]; C_comtra, hr 5 day 1",2 and 1 (4×) and 1.4 (3×)
same,relief of mechanical hypersensitivity,"[2]; SNI 3 weeks after surgery, first day, s.c. 50 μmol/kg only, 5 hours",significant effect at 5 hours
same,relief of mechanical hypersensitivity,"[2]; SNI 3 weeks after surgery, first day, s.c. 2, 10, 50 μmol/kg (all concentrations), 1 hour",significant effects at 1 hour
same,relief of mechanical hypersensitivity,"[2]; SNI, next day (second injection), only 10 and 50 μmol/kg, 1 and 5 hours after administration",significant pain relief
same,development of tolerance,"[2]; SNI, s.c. 2, 10, 50 μmol/kg on 2 consecutive days",do not indicate immediate development of tolerance
same,"von Frey threshold, Fig 7A, individual mice","[2]; group 2, hr 5 day2",0.07 and 0.16 (2×)
same,"von Frey threshold, Fig 7A, individual mice","[2]; group 2, hr23",0.07 (5×) and 0.16 (3×)
same,"von Frey threshold, Fig 7A, individual mice","[2]; group 2, hr1 day 1",0.16 and 1 (2×) and 0.6 (2×) and 1.4 and 0.4 (2×)
same,"von Frey threshold, Fig 7A, individual mice","[2]; group 2, hr 1 day 2",0.16 (3×) and 1 and 0.6 (3×) and 0.4
same,"von Frey threshold, Fig 7A, individual mice","[2]; group 2, hr 5 day 1",0.07 (2×) and 0.4 (3×) and 0.16 (2×) and 0.6
same,"von Frey threshold, Fig 7A, individual mice","[2]; group 10, hr 5 day2",1
same,"von Frey threshold, Fig 7A, individual mice","[2]; group 10, hr23",0.16 (3×) and 0.4 (3×) and 0.07 (2×)
same,"von Frey threshold, Fig 7A, individual mice","[2]; group 10, hr1 day 1",1 (3×) and 2 (2×) and 0.4 and 1.4 and 0.6
same,"von Frey threshold, Fig 7A, individual mice","[2]; group 10, hr 1 day 2",1 (3×) and 2 (2×) and 0.4 (2×) and 1.4
same,"von Frey threshold, Fig 7A, individual mice","[2]; group 10, hr 5 day 1",0.16 and 2 and 1 (2×) and 0.07 and 0.4 (3×)
same,"von Frey threshold, Fig 7A, individual mice","[2]; group 50, hr23",0.16 (5×) and 0.07 (3×)
same,"von Frey threshold, Fig 7A, individual mice","[2]; group 50, hr1 day 1",1.4 (5×) and 1 and 0.6 and 0.16
same,"von Frey threshold, Fig 7A, individual mice","[2]; group 50, hr 1 day 2",1 (4×) and 0.6 and 1.4 (2×) and 0.4
same,"von Frey threshold, Fig 7A, individual mice","[2]; group 50, hr 5 day 1",0.6 (3×) and 1 and 0.4 (2×) and 0.16 (2×)
